Data published in ChEMBL document CHEMBL3886244, “Benzoxazole- and tetrahydrobenzoxazole-substituted pyridazinones as GPR119 agonists” (2014).

Target: T1, Glucose-dependent insulinotropic receptor (Homo sapiens, UniProt Q8TDV5)
T1 sequence (Q8TDV5 whole entry): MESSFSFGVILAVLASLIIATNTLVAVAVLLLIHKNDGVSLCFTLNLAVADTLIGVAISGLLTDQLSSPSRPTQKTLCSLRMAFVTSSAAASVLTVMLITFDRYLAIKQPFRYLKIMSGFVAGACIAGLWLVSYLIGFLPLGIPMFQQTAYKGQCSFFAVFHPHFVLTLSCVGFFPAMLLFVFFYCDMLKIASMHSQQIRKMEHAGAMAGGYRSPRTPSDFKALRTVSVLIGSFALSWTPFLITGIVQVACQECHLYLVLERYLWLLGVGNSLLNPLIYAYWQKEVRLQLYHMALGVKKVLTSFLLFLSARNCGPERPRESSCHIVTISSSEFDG
Test: AlphaScreen cAMP Assay: MIN6 cells [Miyazaki J et al. Endocrinology. 1990 July; 127(1):126-32] were stably transfected with an expression vector for human GPR119 cDNA (Acc. No. NP-848566). Min-6/hGPR119 cells are cultured in DMEM, 10% FBS, 50 uM beta-mercaptoethanol, 0.3 mg/mL Geniticin, 2 mM GlutaMAX at 37 C. 5% CO2. For the assay, the cells are placed in Optiplates (white, 384-well, 160W-barcoded, TC, sterile with lid, Cat. No. #6007688 (Perkin Elmer); 10000 cells/well; 50 ul). The plates covered with lids are then incubated for 24 hours at 37 C./5% CO2.After the medium has been sucked out of the wells completely, 10 ul of the test compound are added, the compounds are diluted beforehand with stimulating buffer (140 mM NaCl, 3.6 mM KCl, 0.5 mM NaH2PO4, 0.5 mM MgSO4, 1.5 mM CaCl2, 10 mM Hepes, 5 mM NaHCO3; pH 7.4. 0.5 mM IBMX and 0.1% BSA, the final DMSO concentration is 1%). After 45 minutes' incubation at RT, the cAMP concentrations are determined using the AlphaScreen cAMP Assay.
Assay type: functional, cell-based

Compound	EC50 [µM]
CC[C@H]1CC(=O)NN=C1c1ccc2nc(-c3ccccc3)oc2c1	> 10
CC1CC(=O)NN=C1c1ccc2nc(-c3ccsc3)oc2c1 (stereo not drawn)	0.267
CCOc1ccc(-c2nc3ccc(C4=NNC(=O)CC4CC)cc3o2)cc1 (stereo not drawn)	0.114
